# Laboratory results: ChEMBL document CHEMBL4421719, “Modulation of k2p channels” (2016)
# Calls of active or inactive are those of the source. No cut-off for these calls is given here.
# Experiments:
# Assay type in all cases: cell-based
# [1] = biological target: T1, Potassium channel subfamily K member 10 (Homo sapiens) (UniProt P57789); assay: Activation of K2P10.1 (unknown origin) expressed in Xenopus oocytes assessed as effect on channel currents at -80 mV holding potential by two-electrode voltage clamp assay relative to control
# T1 sequence (whole entry): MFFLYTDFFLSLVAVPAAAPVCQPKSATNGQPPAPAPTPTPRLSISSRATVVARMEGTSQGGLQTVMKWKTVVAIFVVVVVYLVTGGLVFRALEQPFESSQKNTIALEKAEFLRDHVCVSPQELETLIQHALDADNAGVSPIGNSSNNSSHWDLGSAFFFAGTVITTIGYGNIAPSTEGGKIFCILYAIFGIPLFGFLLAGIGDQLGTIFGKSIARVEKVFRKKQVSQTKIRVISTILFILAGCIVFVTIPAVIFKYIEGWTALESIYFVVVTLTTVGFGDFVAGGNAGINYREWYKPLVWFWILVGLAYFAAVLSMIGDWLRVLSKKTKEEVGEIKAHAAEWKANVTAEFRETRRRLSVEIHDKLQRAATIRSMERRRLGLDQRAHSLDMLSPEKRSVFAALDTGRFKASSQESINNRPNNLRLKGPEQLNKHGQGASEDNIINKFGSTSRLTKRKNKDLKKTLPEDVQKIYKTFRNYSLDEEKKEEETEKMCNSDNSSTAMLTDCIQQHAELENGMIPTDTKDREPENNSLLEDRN
# [2] = biological target: T2, Potassium channel subfamily K member 2 (Homo sapiens, UniProt O95069); assay: Activation of K2P2.1 (unknown origin) expressed in Xenopus oocytes assessed as effect on channel currents at -80 mV holding potential by two-electrode voltage clamp assay
# T2 sequence (O95069 whole entry): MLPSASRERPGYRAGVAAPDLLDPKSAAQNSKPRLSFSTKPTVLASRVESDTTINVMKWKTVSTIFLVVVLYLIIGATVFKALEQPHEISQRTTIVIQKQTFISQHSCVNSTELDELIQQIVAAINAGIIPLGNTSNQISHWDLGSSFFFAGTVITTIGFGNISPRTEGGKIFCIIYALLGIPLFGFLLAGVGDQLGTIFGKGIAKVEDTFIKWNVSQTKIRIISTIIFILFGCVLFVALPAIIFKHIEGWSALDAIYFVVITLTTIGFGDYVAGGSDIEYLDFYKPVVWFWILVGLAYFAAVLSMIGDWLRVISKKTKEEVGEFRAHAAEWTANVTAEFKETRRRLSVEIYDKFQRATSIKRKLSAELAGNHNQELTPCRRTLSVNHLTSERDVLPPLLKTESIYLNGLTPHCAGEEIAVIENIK
# [3] = biological target: T3, Potassium channel subfamily K member 2 (Homo sapiens) (UniProt O95069); assay: Activation of K2P2.1 (unknown origin) expressed in HEK293T cells assessed as effect on channel currents by measuring half-maximal activation time at 5 to 20 uM by two-electrode voltage clamp assay relative to control
# T3 sequence (whole entry): T2 sequence (O95069 whole entry)
# [4] = biological target: T4, Potassium channel subfamily K member 4 (Homo sapiens) (UniProt Q9NYG8); assay: Activation of K2P4.1 (unknown origin) expressed in Xenopus oocytes assessed as effect on channel currents at -80 mV holding potential at 100 uM by two-electrode voltage clamp assay relative to control
# T4 sequence (whole entry): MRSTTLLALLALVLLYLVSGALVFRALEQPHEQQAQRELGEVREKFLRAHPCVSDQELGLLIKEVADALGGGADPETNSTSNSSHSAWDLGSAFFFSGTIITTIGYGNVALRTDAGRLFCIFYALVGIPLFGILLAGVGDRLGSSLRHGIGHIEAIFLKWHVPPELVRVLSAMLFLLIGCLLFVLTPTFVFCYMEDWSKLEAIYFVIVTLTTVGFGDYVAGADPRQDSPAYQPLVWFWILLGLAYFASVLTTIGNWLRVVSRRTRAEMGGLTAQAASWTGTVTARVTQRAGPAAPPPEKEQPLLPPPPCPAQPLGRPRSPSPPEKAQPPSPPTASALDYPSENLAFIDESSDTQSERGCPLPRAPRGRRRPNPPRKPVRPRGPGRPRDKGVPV
# [5] = biological target: T3, Potassium channel subfamily K member 2 (Homo sapiens); assay: Activation of K2P2.1 (unknown origin) expressed in Xenopus oocytes assessed as effect on channel currents at -80 mV holding by two-electrode voltage clamp assay relative to control
# [6] = biological target: Potassium channel subfamily K member 2 (Homo sapiens, UniProt O95069, W275S); assay: Activation of K2P2.1 W275S mutant (unknown origin) expressed in Xenopus oocytes assessed as effect on channel currents at -80 mV holding potential by two-electrode voltage clamp assay
# [7] = biological target: T5, Potassium channel subfamily K member 5 (Homo sapiens) (UniProt O95279); assay: Activation of K2P5.1 (unknown origin) expressed in Xenopus oocytes assessed as effect on channel currents at -80 mV holding potential at 100 uM by two-electrode voltage clamp assay relative to control
# T5 sequence (whole entry): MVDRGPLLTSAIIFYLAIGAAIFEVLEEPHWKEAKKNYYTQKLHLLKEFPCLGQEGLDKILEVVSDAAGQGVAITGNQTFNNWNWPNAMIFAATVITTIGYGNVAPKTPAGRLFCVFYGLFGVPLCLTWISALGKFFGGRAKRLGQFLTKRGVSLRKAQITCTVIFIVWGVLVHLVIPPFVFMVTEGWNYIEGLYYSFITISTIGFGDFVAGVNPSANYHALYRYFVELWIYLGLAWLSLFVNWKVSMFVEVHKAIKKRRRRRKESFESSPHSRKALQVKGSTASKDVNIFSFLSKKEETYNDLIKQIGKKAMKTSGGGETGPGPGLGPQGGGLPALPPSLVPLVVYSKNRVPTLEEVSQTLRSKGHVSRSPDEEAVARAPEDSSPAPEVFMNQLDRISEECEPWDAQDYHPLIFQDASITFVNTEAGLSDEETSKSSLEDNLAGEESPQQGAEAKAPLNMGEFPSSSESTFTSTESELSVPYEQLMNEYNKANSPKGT
# [8] = biological target: T3, Potassium channel subfamily K member 2 (Homo sapiens); assay: Activation of K2P2.1 (unknown origin) expressed in HEK293T cell membranes in outside-out patch configuration assessed as effect on channel currents by measuring time of half-maximal activation at 20 uM by two-electrode voltage clamp assay relative to control
# [9] = biological target: T3, Potassium channel subfamily K member 2 (Homo sapiens); assay: Activation of K2P2.1 (unknown origin) expressed in whole HEK293T cells in assessed as effect on channel currents by measuring time of half-maximal activation at 20 uM by two-electrode voltage clamp assay relative to control
# [10] = system: Potassium channel subfamily K member 2 (Homo sapiens), O95069 [UNDEFINED MUTATION]; assay: Activation of K2P2.1 W275S mutant (unknown origin) expressed in Xenopus oocytes assessed as effect on channel currents at 50 uM at -80 mV holding potential by two-electrode voltage clamp assay
# [11] = Activation of K2P2.1 3G mutant (unknown origin) expressed in Xenopus oocytes assessed as effect on channel currents at -80 mV holding potential by two-electrode voltage clamp assay; conditions: Homo sapiens
# [12] = biological target: T3, Potassium channel subfamily K member 2 (Homo sapiens); assay: Activation of K2P2.1 (unknown origin) expressed in HEK293T cell membranes in inside-out patch configuration assessed as effect on channel currents at 20 uM by two-electrode voltage clamp assay relative to control
structure (smiles),measurement,setting,value
CC1(C)c2cc(Cl)ccc2N(CCc2nnn[nH]2)c2ccc(Cl)cc21,Emax,[1],11.4
same,EC50,[2],36.3 to 38.5 µM
same,TIME,[3],0.00114 h
same,Emax,[4],14.7%
same,Emax,[5],11.1 to 11.4
same,EC50,[6],21.8 µM
same,Emax,[7],1.7%
same,T1/2,[8],4.6 s
same,T1/2,[9],4.1 s
same,Activity,[10],inactive
same,EC50,[11],49.4 µM
same,Activity,[12],Active
